Several values for one entry are separate records, joined by “and”; a condition that tells them apart may be missing. Identical values can stand only once.
How the values were obtained:
[1] = tested on: CA3 pyramidal neurons in hippocampus; assay: Giant depolarizing potentials (GDPs) current density in CA3 pyramidal neurons, hippocampal slices, whole-cell recordings; type: cell-based, mice; settings: for GDPs current density (normalized): individual cells; for activity at 0.1 µM / activity at 0.3 µM / activity at 1 µM / activity at 3 µM / activity at 10 µM: Mus musculus, Pyramidal neuron, mean, read-out: GDPs current density, Mean (normalized); for block of GDPs in CA3 pyramidal neurons: in words
Excerpt: FIG. 2. Brain slice (hippocampus) with electrical stimulation and recording
FIG. 3. Normalized GDP current density in CA3 pyramidal neurons in presence of NKCC1 inhibitor
Panel A. Normalized GDP current density in CA3 pyramidal neurons according to the concentration of compound 57 in μM Panel B. Normalized GDP current density in CA3 pyramidal neurons according to the concentration of compound 51 in μM Panel C. Normalized GDP current density in CA3 pyramidal neurons according to the concentration of compound 57 and compound 51 in μM.
51 and 57 were tested to evaluate their basic neuronal intrinsic properties and excitability. Current-clamp whole-cell recordings were performed in CA3 pyramidal neurons in hippocampal slices from P14-15 mice with a bipolar stimulation electrode (FIG. 2).

[2] = tested on: CA1 pyramidal neurons; assay: Seizure-like events (SLE) triggered by tetanus stimulation of stratum radiatum in hippocampus, cell-attached recording; type: cell-based; settings: for anticonvulsive activity / suppression of GABAAR-mediated depolarization during SLEs: 2 μM, in words
Experimental: (§1) FIG. 4. Cell-attached recording Tetanus in CA1 pyramidal neurons in presence of compound 51 (20 stimulus, 100 Hz, 4 consecutive traces superimposed), expressed in picoampere per second. The upper bars are representing the 100 Hz stimulation of stratum radiatum in control conditions, and the lower bars are representing 30 minutes after application of 2 μM of compound 51.
as §1, with “5.” for “4.”, “57” for “51”, “57.” for “51.”
FIG. 6. Post-tetanus frequency (normalized) in presence or not of 2 μM of compound 51 (withing 20 seconds window s after tetanus stimulation) (paired two-tailed t test: p=1*e^−4, n=5 cells). The error bars represent standard error of the mean.
FIG. 7. Post-tetanus frequency (normalized) in presence or not of 2 μM of compound 57 (withing 20 seconds window s after tetanus stimulation) (paired two-tailed t test: p=1*e^−4, n=5 cells). The error bars represent standard error of the mean.
Use of a NKCC1 inhibitor to block the activation of NKCC1 can reduce the [Cl^−]i, and thereby attenuate the excitatory GABAAR responses during epilepsy. Therefore, anticonvulsant effects of 51 on modulating the GABA polarity in acute seizure models was investigated. The seizure-like events in CA1 pyramidal neurons were triggered by tetanic stimulation of stratum radiatum in hippocampus by 51 (FIG. 4) and 57 (FIG. 5).

| SMILES | GDPs current density (normalized) ([1]; 0.1 μM) | GDPs current density (normalized) ([1]; 0.3 μM) | GDPs current density (normalized) ([1]; 1 μM) | GDPs current density (normalized) ([1]; 3 μM) | GDPs current density (normalized) ([1]; 10 μM) | activity at 0.1 µM ([1]; 0.1 μM) | activity at 0.3 µM ([1]; 0.3 μM) | activity at 1 µM ([1]; 1 μM) | activity at 3 µM ([1]; 3 μM) | activity at 10 µM ([1]; 10 μM) | block of GDPs in CA3 pyramidal neurons [1] | anticonvulsive activity [2] | suppression of GABAAR-mediated depolarization during SLEs [2] | activity at 2 µM ([2]; Pyramidal neuron, 0.5 h, fraction of control, n=5, two-tailed paired t-test, p=5*e^−4, read-out: post-tetanus spike frequency, of control) |
| --- | --- | --- | --- | --- | --- | --- | --- | --- | --- | --- | --- | --- | --- | --- |
| CCCCNc1cc(C(=O)O)cc(S(=N)(=O)Nc2ccccc2)c1Oc1ccccc1 (stereo not drawn) [Compound 57, 3-(anilinosulfonimidoyl)-5-(butylamino)-4-phenoxy-benzoic acid] | 1.067 and 0.6415 and 0.36 and 0.7716 and 1.279 and 0.8652 and 0.5079 and 0.901 | 0.3666 and 0.448 and 0.5922 and 0.1844 and 0.9957 and 0.5556 and 0.7164 | 0.5108 and 0.3317 and 0.1389 and 0.1288 and 0.09779 and 0.191 and 0.2683 and 0.352 | 0.06999 and 0.4997 and 0.2222 and 0.0431 and 0.2732 and 0.2642 and 0 | 0.06399 and 0.2068 and 0 (3×) | 79.9% | 55.1% | 25.2% | 19.6% | 5.42% | able to block GDPs | potent anticonvulsive activity | potently suppressed | – |
| CCCCNc1cc(C(=O)O)cc(S(=N)(=O)NC)c1Oc1ccccc1 (stereo not drawn) [Compound 51, 3-(butylamino)-5-(methylaminosulfonimidoyl)-4-phenoxy-benzoic acid] | 0.6538 and 1.003 and 0.8458 and 0.6095 and 0.2984 | 0.2304 and 0.3999 and 0.22 and 0.9979 and 1.222 and 0.1863 | 0.2253 and 0.1713 and 0.1814 and 0.3747 and 0.3549 and 0.1282 and 0.4268 | 0.1082 and 0.484 and 0.1443 and 0.1442 and 0.08715 and 0 and 0.175 | 0.1092 and 0 (2×) and 0.04 (2×) and 0.05 | 68.2% | 54.3% | 26.6% | 16.3% | 3.99% | able to block GDPs | potent anticonvulsive activity | potently suppressed | 27 ± 7% |
